Test results taken from patent US20210309685A1, “AMINO ACID SALTS OF NICOTINIC ACID MONONUCLEOTIDE AND NICOTINAMIDE MONONUCLOETIDE AS ANTI-AGEING AGENTS” (Life Biosciences, Inc., priority 2018, published 2021).

System: COV434 cells
Assay: NAD cell assay (NAD cycling method) in COV434 cells
Assay type: cell-based
Conditions: cellular NAD level, 200 uM, 4 hr, mole per mole versus parent NMN (NMN salts) or NaMN (NaMN salts), normalised to protein
Protocol: NAD levels were assayed based on the NAD cycling method of Zhu and Rand, PLoS One (2012), herein incorporated by reference. COV434 cells were maintained in 6 well plates and treated with the indicated compounds at a concentration of 200 uM for 4 hr. Media was removed, plates were washed in cold PBS and cells were scraped down in NAD extraction buffer containing 10 mM nicotinamide, 50 mM Tris HCl, 0.1% Triton X-100. Cells were homogenised by sonication for 5 seconds, and samples were centrifuged at 7,000 g for 5 min at 4 degrees. Aliquots were taken for later protein assay, and samples were then passed through 10 kDa amicon filters at 14,000 g, 30 min at 4 degrees to remove proteins from the sample. Each sample was measured in technical triplicate, with 25 μL sample added to 100 μL ADH cycling mix (0.2 mg/ml alcohol dehydrogenase enzyme, 2% ethanol, 100 mM Tris pH 8.5). Samples were allowed to cycle for 10 min at room temperature, followed by 50 μL addition of an MTT/PMS solution (0.1 mM phenazine methosulfate, 0.8 mM 3-(4,5-Dimethylthiazol-2-yl)-2,5-diphenyltetrazolium bromide), 100 mM Tris-HCl pH 8.5). Plates were then incubated for 15 min and absorbance was measured at 570 nm. NAD concentrations were extrapolated from a standard curve, and normalised to protein concentrations determined by BCA protein assay.
The adjusted fold increase is obtained through a direct comparison on a mole per mole basis between the compared salt and its parent counterpart. In other words, the instant salts derived from NMN parent molecule will only have their NAD activity level measured against NMN based on the same amount (mole) of salt tested in the cell. Likewise those salts derived from NaMN will have their NAD cell activity measured against NaMN. For example, the fold increase of compound I-002 is based on the NAD activity observed in a direct comparison for the same amount of mole of I-002 tested in the cell and that of the NMN parent. Similarly, the fold increase of I-003 is based on the direct comparison with NaMN.

Compound	FOLD increase adjusted for MW (compared to parent molecule) [fold]
O=C([O-])c1ccc[n+]([C@@H]2O[C@H](COP(=O)(O)O)[C@@H](O)[C@H]2O)c1 [Compound I-001, (S)-1-Carboxy-2-methylpropan-1-aminium 1-((2R,3R,4S,5R)-5-(((hydrogenphosphonato)oxy)methyl)-3,4-dihydroxytetrahydrofuran-2-yl)pyridin-1-ium-3-carboxylate]	1.61
NC(=O)c1ccc[n+]([C@@H]2O[C@H](COP(=O)([O-])O)[C@@H](O)[C@H]2O)c1 [Compound I-002, (S)-1-Carboxy-2-methylpropan-1-aminium ((2R, 3S, 4R, 5R)-5-(3-carbamoylpyridin-1-ium-1-yl)-3,4-dihydroxytetrahydrofuran-2-yl)methyl phosphate]	1.24
O=C([O-])c1ccc[n+]([C@@H]2O[C@H](COP(=O)(O)O)[C@@H](O)[C@H]2O)c1 [Compound I-003, (S)-4-Amino-1-carboxy-4-oxobutan-1-aminium 1-((2R3R,4S,5R)-5-(((hydrogenphosphonato)oxy)methyl)-3,4-dihydroxytetrahydrofuran-2-yl)pyridin-1-ium-3-carboxylate]	1.89
O=C([O-])c1ccc[n+]([C@@H]2O[C@H](COP(=O)(O)O)[C@@H](O)[C@H]2O)c1 [Compound I-004, Bis((S)-1-Carboxy-2-methylpropan-1-aminium)-1-((2R,3R,4S,5R)-3,4-dihydroxy-5-((phosphonatooxy)methyl)tetrahydrofuran-2-yl)pyridin-1-ium-3-carboxylate]	1.99
O=C([O-])c1ccc[n+]([C@@H]2O[C@H](COP(=O)(O)O)[C@@H](O)[C@H]2O)c1 [Compound I-005, Bis((S)-4-Amino-1-carboxy-4-oxobutan-1-aminium)-1-((2R,3R,4S,5R)-3,4-dihydroxy-5-((phosphonatooxy)methyl)tetrahydrofuran-2-yl)pyridin-1-ium-3-carboxylate]	3.05
O=C([O-])c1ccc[n+]([C@@H]2O[C@H](COP(=O)(O)O)[C@@H](O)[C@H]2O)c1 [Compound I-006, (S)-1-Carboxy-2-(1H-imidazol-4-yl)ethanaminium 1-((2R,3R,4S,5R)-5-(((hydrogenphosphonato)oxy)methyl)-3,4-dihydroxytetrahydrofuran-2-yl)pyridin-1-ium-3-carboxylate]	1.64
O=C([O-])c1ccc[n+]([C@@H]2O[C@H](COP(=O)(O)O)[C@@H](O)[C@H]2O)c1 [Compound I-008, Bis((S)-1-Carboxy-2-(1H-imidazol-4-yl)ethanaminium)-1-((2R,3R,4S,5R)-3,4-dihydroxy-5-((phosphonatooxy)methyl)tetrahydrofuran-2-yl)pyridin-1-ium-3-carboxylate]	2.45
O=C([O-])c1ccc[n+]([C@@H]2O[C@H](COP(=O)(O)O)[C@@H](O)[C@H]2O)c1 [Compound I-009, (S)-1-Carboxy-4-guanidinobutan-1-aminium 1-((2R,3R,4S,5R)-5-(((hydrogenphosphonato)oxy)methyl)-3,4-dihydroxytetrahydrofuran-2-yl)pyridin-1-ium-3-carboxylate]	2.03
O=C([O-])c1ccc[n+]([C@@H]2O[C@H](COP(=O)(O)O)[C@@H](O)[C@H]2O)c1 [Compound I-011, (S)-1-Carboxy-2-(1H-indol-3-yl)ethanaminium 1-((2R,3R,4S,5R)-5-(((hydrogenphosphonato)oxy)methyl)-3,4-dihydroxytetrahydrofuran-2-yl)pyridin-1-ium-3-carboxylate]	2.35
NC(=O)c1ccc[n+]([C@@H]2O[C@H](COP(=O)([O-])O)[C@@H](O)[C@H]2O)c1 [Compound I-014, (S)-1-Carboxy-2-(1H-indol-3-yl)ethanaminium ((2R,3S,4R,5R)-5-(3-carbamoylpyridin-1-ium-1-yl)-3,4-dihydroxytetrahydrofuran-2-yl)methyl phosphate]	1.51
O=C([O-])c1ccc[n+]([C@@H]2O[C@H](COP(=O)(O)O)[C@@H](O)[C@H]2O)c1 [Compound I-015, Bis((S)-1-Carboxy-4-guanidinobutan-1-aminium)-1-((2R,3R,4S,5R)-3,4-dihydroxy-5-((phosphonatooxy)methyl)tetrahydrofuran-2-yl)pyridin-1-ium-3-carboxylate]	2.04
O=C([O-])c1ccc[n+]([C@@H]2O[C@H](COP(=O)(O)O)[C@@H](O)[C@H]2O)c1 [Compound I-016, Bis((S)-1,3-Dicarboxypropan-1-aminium)-1-((2R,3R,4S,5R)-3,4-dihydroxy-5-((phosphonatooxy)methyl)tetrahydrofuran-2-yl)pyridin-1-ium-3-carboxylate]	2.29
O=C([O-])c1ccc[n+]([C@@H]2O[C@H](COP(=O)(O)O)[C@@H](O)[C@H]2O)c1 [Compound I-017, Bis((S)-1-Carboxy-2-(1H-indol-3-yl)ethanaminium)-1-((2R,3R,4S,5R)-3,4-dihydroxy-5-((phosphonatooxy)methyl)tetrahydrofuran-2-yl)pyridin-1-ium-3-carboxylate]	2.40
O=C(O)c1ccc[n+]([C@@H]2O[C@H](COP(=O)([O-])O)[C@@H](O)[C@H]2O)c1 [Compound I-020, Bis((1S,2R)-1-carboxy-2-hydroxypropan-1-aminium)-1-((2R,3R,4S,5R)-3,4-dihydroxy-5-((phosphonatooxy)methyl)tetrahydrofuran-2-yl)pyridin-1-ium-3-carboxylate]	1.52
NC(=O)c1ccc[n+]([C@@H]2O[C@H](COP(=O)([O-])O)[C@@H](O)[C@H]2O)c1 [Compound I-022, (S)-2-carboxypyrrolidin-1-ium ((2R,3S,4R,5R)-5-(3-carbamoylpyridin-1-ium-1-yl)-3,4-dihydroxytetrahydrofuran-2-yl)methyl phosphate]	1.33
O=C([O-])c1ccc[n+]([C@@H]2O[C@H](COP(=O)(O)O)[C@@H](O)[C@H]2O)c1 [Compound I-026, Bis((S)-5-amino-5-carboxypentan-1-aminium)-1-((2R,3R,4S,5R)-3,4-dihydroxy-5-((phosphonatooxy)methyl)tetrahydrofuran-2-yl)pyridin-1-ium-3-carboxylate]	2.47
O=C(O)c1ccc[n+]([C@@H]2O[C@H](COP(=O)([O-])O)[C@@H](O)[C@H]2O)c1 [Compound I-027, (S)-1-carboxy-3-(methylthio)propan-1-aminium 1-((2R,3R,4S,5R)-5-(((hydrogenphosphonato)oxy)methyl)-3,4-dihydroxytetrahydrofuran-2-yl)pyridin-1-ium-3-carboxylate]	1.49
(1S,2S)-1-Carboxy-2-methylbutan-1-aminium ((2R,3S,4R,5R)-5-(3-carbamoylpyridin-1-ium-1-yl)-3,4-dihydroxytetrahydrofuran-2-yl)methyl phosphate [Compound I-062]	1.32
(R)-1-Carboxy-2-methylpropan-1-aminium 1-((2R,3R,4S,5R)-3,4-dihydroxy-5-((phosphonatooxy)methyl)tetrahydrofuran-2-yl)pyridin-1-ium-3-carboxylate [Compound I-065]	1.54
(S)-1-Carboxy-3-methylbutan-1-aminium 1-((2R,3R,4S,5R)-3,4-dihydroxy-5-((phosphonatooxy)methyl)tetrahydrofuran-2-yl)pyridin-1-ium-3-carboxylate [Compound I-058]	1.81
(S)-1-Carboxy-3-methylbutan-1-aminium ((2R,3S,4R,5R)-5-(3-carbamoylpyridin-1-ium-1-yl)-3,4-dihydroxytetrahydrofuran-2-yl)methyl phosphate [Compound I-059]	1.80
